This is an account of results in PubChem BioAssay AID743369.

SMILES strings stand for the structures. The source made the active and inactive calls. The rule behind the calls is not given here.

For this experiment, the target named is Acetylcholine-binding protein (Lymnaea stagnalis) (UniProt P58154). Briefly: acetylcholine-binding protein ligand affinity – biochemical, Lymnaea stagnalis, His-tagged, [125I]alpha-bungarotoxin (AID 743369). Conditions: Purified AChBP, [125I]-alpha-bungarotoxin displacement, filtration.
Sequence of Acetylcholine-binding protein (Lymnaea stagnalis) (P58154 whole entry, looked up): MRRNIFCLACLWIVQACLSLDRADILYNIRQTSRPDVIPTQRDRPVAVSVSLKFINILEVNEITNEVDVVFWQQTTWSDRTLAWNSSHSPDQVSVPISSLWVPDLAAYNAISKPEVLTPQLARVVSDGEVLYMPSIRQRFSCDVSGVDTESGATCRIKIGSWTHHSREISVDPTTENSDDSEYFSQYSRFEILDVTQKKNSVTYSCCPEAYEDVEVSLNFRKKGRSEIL
As for `COc1cc2c3c(ccnc3c1OC)NC=C2`, the Ki is 3 µM.

For the compound `C[C@@H](N)[C@H](O)CCCCCCCC(=O)CCCCCCCCCCCCCC[C@@H](O[C@@H]1O[C@H](CO)[C@H](O)[C@H](O)[C@H]1O)[C@@H](C)N`, the Ki was 28 µM.

On to `COc1cc(CCN)c2c(c1OC)SSSSS2`, for which the inhibitory constant (Ki) was 0.79 µM.

`COn1c(Br)c2c3c(cccc31)[C@H]1C[C@@H](C)CN(C)[C@@H]1C2`: the Ki was 0.83 µM.

On to `CC/C=C/[C@@H]1CC[C@]2(C[C@H]3CC[C@H]4[C@@H](C(=O)OC(CC)CCCCCCCCCCCCC[C@@H]5O[C@](O)(CCN)[C@H](O)N(CCCN)C5=O)[C@@]5(CCC[C@H](C)O5)NC(=[N+]34)N2)O1` (stereo partly specified), for which the Ki is 2.5 µM.

With `NC1=N/C(=C2/CCNC(=O)c3[nH]ccc32)C(=O)N1`, the Ki result is “inactive”.
